Laboratory results reported in patent US20210017607A1, “Methods of Predicting Responsiveness to Cancer Therapies” (The University of Chicago, priority 2019, published 2021).

Tests used:
Format in all cases: cell-based, mouse
[1] = tested on: cGAS/STING signaling pathway components p-TBK1 and p-IRF3; test: Western blotting of cGAS/STING pathway activation
Experimental: (§1) FIGS. 15A-15E. Differential STING pathway activation within B6-Myc (STING^hi) cell lines and BMDMs relative to Myc-CAP (STING^lo) cells. (15A, 15B) The indicated cancer cell lines and BMDMs were treated with DMXAA (mouse STING agonist) for 1 and 24 hours, respectively, and protein extracts were interrogated for cGAS/STING pathway activation with the indicated antibodies by Western blotting. Supernatants were collected from for IFNβ1 ELISA following 36 hours of treatment with DMXAA (15C, 15D). (15E) Syngeneic Myc-CAP (STING^lo) tumors were processed into single cell suspensions and used for phycoerythrin-based sorting of CD45+ cellular fractions. Equal numbers of cells from these fractions were stimulated with DMXAA. Supernatants were collected at 36 hrs for detection of IFNB1 by ELISA; n=3 independent experiments; Significance/p-values were calculated by one-way Anova (for 15C & 15E) or paired t-test (for 15D); TAM=tumor associated macrophage; s.e.=short exposure; l.e.=long exposure.
Western Blot Analysis. RIPA and T-PER buffer (Thero Scientific®), supplemented with protease (Roche®) and HALT phosphatase inhibitor cocktail (Roche®), were used for preparation of lysates from in vitro cell lines and whole tumor chunks, respectively. For western blotting, the following antibodies were used from Cell Signaling Technology®: Polyclonal rabbit anti-mouse-phospho-γH2AX, phospho-AKT, total AKT, cGAS, STING, phospho-IRF3, total IRF3, phospho-TBK1, total TBK1, PTEN, β-actin and GAPDH. Monoclonal anti-mouse PAR antibody was obtained from Trevigen®. Images of scanned blots were processed using ADOBE Photoshop®.

[2] = tested on: Myc-CAP (STING^lo) cancer cells; test: IFNβ1 ELISA of supernatants after DMXAA treatment; conditions: 36 hours
Experimental: as §1
Cancer Cell Lines. Transgenic c-myc” prostate tumor derived cell line, Myc-CAP) (STING^lo) was obtained from ATCC and passaged in 1× DMEM (without phenol red) containing 10% fetal bovine serum, 1% penicillin-streptomycin and 2% L-glutamine. The corresponding c-myc^hi line derived from a C57BL6 generated background were grown for in vitro studies, using same culture conditions as for Myc-CAP. […]

[3] = tested on: prostate-specific PTEN^−/−p53^−/− GEMM tumors; test: Ex vivo GEMM tumor suspensions, IFNβ1 ELISA; conditions: DMXAA 50 μg/mL, 36 hours
Experimental: FIG. 39. […] Tumors from prostate-specific PTEN^−/−p53^−/− GEMM tumors were processed into single cell suspensions and treated with indicated drugs (DMXAA at 50 μg/mL, Buparlisib at 1000 nM, Rucaparib at 500 nM). At 36 hours supernatants were collected for ELISA based detection of IFNβ1; n=1 independent experiment.
Ex vivo Assays. Subcutaneous tumors were isolated by gentle mechanical dissociation in the presence of 1×RPMI (supplemented with 10% fetal bovine serum, 1% penicillin-streptomycin and 2% L-glutamine). 1×ACK was used for RBC lysis. Single cell suspensions were washed twice with media, by centrifuging at 500×g for 5 min at 4° C. and quantified using 0.1% […] solution. Cells were seeded at a concentration 0.2-0.5 million cells/mL and treated with indicated drugs singly or in combination for 36 hours. DMXAA (positive control) was used at indicated concentration. Supernatants from treated BMDMs were collected at the end of 36 hours and processed as per ELISA protocol for detection of cytokines/chemokines.

[4] = tested on: Myc-CAP-PTEN-deficient cancer cells; test: Exosome dsDNA content by Nanodrop; conditions: rucaparib 36 hours
Experimental: FIGS. 40A and 40B. […] Isogenic PTEN-proficient and CRISPR-CAS9-mediated PTEN-knockout Myc-CAP cells were treated with rucaparib for 36 hours. Exosomes were collected by ultracentrifugation and used for quantification of particle number by Nanosight (40A) and dsDNA content by Nanodrop® (40B). n=2 experiments.
FIGS. 41A and 41B. […] Exosomes were collected by ultracentrifugation and used for quantification of particle number by Nanosight (41A) and dsDNA content by Nanodrop® (41B). n=2 experiments.
Microvesicle Isolation (MVs)/DNA extraction. Cells were treated for 36 hours with the indicated drugs, and supernatants were harvested and then centrifuged at 300×g for 5 minutes at 4° C. to pellet cells, This was followed by additional centrifugation steps at 2,000×g for 10 min at 4° C. to eliminate dead cell debris and at 10,000×g for 30 min in at 4° C. to remove larger vesicles. The supernatant was then collected and subjected to 100,000×g centrifugation in a Type 60 Ti rotor (38000 rpm) for 70 min at 4 ° C. […] The final EV pellet was collected in 1×PBS and used for quantification. […] Equal numbers of EVs were collected from each treatment group and DNA was extracted using Trizol® LS as per protocol (Thermo Fischer Scientific®) and then quantified using Nanodrop®.

| Structure (SMILES) | activation of p-TBK1 and p-IRF3 ([1]; B6-Myc (STING^hi) cells) | activation of c-GAS/STING signaling pathway ([1]; BMDMs) | activation of p-TBK1 and p-IRF3 ([1]; Myc-CAP (STING^lo) cells) | induction in IFN-β levels [2] | STING activation (IFNβ1 ELISA) [3] | exosomal dsDNA content relative to PTEN-proficient counterparts ([4]; CRISPR-CAS9 PTEN-knockout) | exosomal dsDNA content relative to PTEN-proficient counterparts ([4]; siRNA PTEN-knockdown) |
| --- | --- | --- | --- | --- | --- | --- | --- |
| Cc1ccc2c(=O)c3cccc(CC(=O)O)c3oc2c1C [DMXAA, 5,6-Dimethylxanthenone-4-acetic Acid] | activated | activated the c-GAS/STING signaling pathway | not observed | not observed | induces STING activation | – | – |
| CNCc1ccc(-c2[nH]c3cc(F)cc4c3c2CCNC4=O)cc1 [rucaparib] | – | – | – | – | – | significantly reduced dsDNA content | significantly reduced dsDNA content |
